According to the NIST ThermoML archive (doi:10.1016/j.jct.2016.11.029):
± gives the expanded uncertainty stated by the source.

Key:
[1] = Crystal; DTA
[2] = Molar enthalpy of transition or fusion; conditions: Crystal; DSC

Normal melting temperature [1]: 199.80 ± 1.1 °C
Molar enthalpy of transition or fusion [2]: 5.16 ± 0.22 kcal/mol
Structure (SMILES): Clc1ccc2c(c1)Nc1ccccc1S2 [2-chlorophenothiazine]
